In patent US9102637B2, “Bicyclic thiazole compounds” (CARNA BIOSCIENCES INC., priority 2013, dated 2015):
pIC50: −log10 of the molar value.

The molecules below were run against human TNIK (N-terminal segment, TNIK_N, residues 1-314) (Homo sapiens (Human), UniProt Q9UKE5) (assay: TNIK kinase assay (mobility shift)). Conditions: TNIK_N kinase activity, 25 μM ATP, 1 h at room temperature.
human TNIK (N-terminal segment, TNIK_N, residues 1-314), sequence (Q9UKE5 1-314): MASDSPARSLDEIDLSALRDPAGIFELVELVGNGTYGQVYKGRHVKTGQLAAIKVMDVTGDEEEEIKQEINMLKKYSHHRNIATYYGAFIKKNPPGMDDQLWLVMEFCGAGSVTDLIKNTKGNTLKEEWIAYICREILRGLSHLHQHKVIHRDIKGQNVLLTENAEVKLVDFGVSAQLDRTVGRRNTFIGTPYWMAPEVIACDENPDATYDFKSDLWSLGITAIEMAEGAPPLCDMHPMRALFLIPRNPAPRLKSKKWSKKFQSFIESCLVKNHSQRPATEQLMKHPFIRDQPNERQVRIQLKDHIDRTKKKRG
Assay type: biochemical
Text: Preparation of Recombinant Human TNIK (N-Terminal Segment):
A cDNA encoding the N-terminal segment (TNIK_N, residues 1-314) containing the kinase domain of human TNIK (NM_015028.1) was amplified from cDNA mixture synthesized from human tissue (Biochain) by PCR using the following primers.
The cDNA was subcloned into baculovirus transfer vector pFastBac_GSTb that includes protease cleavage site and glutathione S-transferase purification tag (GST-tag). The plasmid was purified and the insertion of the pFastBac_GSTb-TNIK_N was confirmed by DNA sequencing. Then E. coli DH10Bac competent cells were transformed with the plasmid to prepare the recombinant bacmid according to the instructions for the Bac-to-Bac™ baculovirus expression systems (Invitrogen). The Sf9 cells were transfected with the recombinant bacmid containing pFastBac_GSTb-TNIK_N using Cellfectin Reagent (Invitrogen) in SF-9001I serum free media (Invitrogen). The viral supernatant was collected from the medium 72 h after transfection. The virus was amplified three times by infecting actively growing Sf9 or Sf21 cells in Grace's insect media (Invitrogen) supplemented with 10% FCS and an antibiotic-antimycotic reagent (Invitrogen) for 72 h at 27° C. in T-flask or roller bottles. The titer of amplified TNIK_N virus was estimated at 2.36×10^8 pfu/ml by using BacPAK™ Baculovirus Rapid Titer kit (Clontech).
Log-phase Sf21 cells (2×10^6 cells/ml) in the Grace's insect media were infected with the recombinant baculovirus at MOI of 3.0 and incubated in roller bottles (250 ml media per bottle) for 72 h at 27° C., after which, the cells were collected by centrifugation, and the cell pellet washed with cold PBS and kept at −80° C. until purification. The following purification procedures were carried out at 4° C. The frozen cells were thawed on ice and lysed in lysis buffer (50 mM Tris-HCl, pH 7.5, 150 mM NaCl, 1% Nonidet P-40, 5 mM DTT, 0.5 mM EDTA, 0.5 mM EGTA) supplemented with 1 mM phenylmethansulfonylfluoride, 2 μg/ml leupeptin, 2 μg/ml aprotinin, 1 mM NaF, 100 μM sodium orthovanadate, and 1 μM cantharidin by sonication. The suspended lysate was cleared by centrifugation at 9000g for 20 min and the supernatant was incubated for 1 h with glutathione Sepharose beads (GE Healthcare). The beads were suspended in buffer-H (50 mM Tris-HCl, pH 7.5, 1 M NaCl, 1 mM DTT, 0.5 mM EDTA, 0.5 mM EGTA and 0.05% Brij35) and washed with buffer-H followed by buffer-L (50 mM Tris-HCl, pH 7.5, 150 mM NaCl, 1 mM DTT, 0.5 mM EDTA, 0.5 mM EGTA, 0.05% Brij35) in an Econo-pack column (BIO-RAD). The bound TNIK_N was eluted with elution buffer (50 mM Tris-HCl, pH 8.0, 150 mM NaCl, 1 mM DTT, 10% glycerol, 0.5 mM EDTA, 0.5 mM EGTA and 5 mM reduced glutathione). The eluted fractions were collected and determined the protein concentration by Bradford reagent (BIO-RAD). The TNIKN fractions were pooled and desalted using 10DG column (BIORAD) equilibrated with the storage buffer (50 mM Tris-HCl, pH 7.5, 150 mM NaCl, 1 mM DTT, 10% glycerol, 0.05% Brij35). The purified TNIKN was characterized by electrophoresis using 4-20% polyacrylamide gels and matrix-assisted laser desorption/ionization reflection time-of-flight (MALDI-TOF) mass spectrometry on a Voyager-DE RP MALDI/TOF (Applied Biosystems). TNIK_N was confirmed by the molecular weight and. MASCOT Peptide Mass Fingerprint.
The kinase assays were conducted in a 20 μl volume using 384-well plates (Greiner). The reaction mixture consists of compound or vehicle (1% DMSO), 0.08 ng/μl TNIK_N, 1 μM FITC-labeled substrate peptides, including E-aminocaproic acid and 7 amino acids (described as SEQ ID NO.3 in “Kinase assay of TEST EXAMPLE 1” of WO 2010/064111(P.31)), 20 mM Hepes, pH 7.5, 0.01% Triton X-100, 5 mM MgCl2, 25 μM ATP and 2 mM DTT. As blank, TNIK N was excluded from the reaction mixture of vehicle (1% DMSO). […]
A pIC50 of 8.59 was found for CN(C)[C@H]1CCN(Cc2ccc(C(=O)Nc3sc(Nc4ccc5ccccc5c4)nc3C(N)=O)cc2)C1 [Example 221, (S)-5-(4-{[3-(dimethylamino)pyrrolidin-1-yl]methyl}benzamido)-2-(naphthalen-2-ylamino) thiazole-4-carboxamide] in this work.
A pIC50 of 8.49 was found for CN1CCCN(Cc2ccc(C(=O)Nc3sc(Nc4ccc5ccccc5c4)nc3C(N)=O)cc2)CC1 [Example 190, 5-{4-[(4-methyl-1,4-diazepan-1-yl)methyl]benz-amido}-2-(naphthalen-2-ylamino)thiazole-4-carbox-amide] in this work.
A pIC50 of 8.24 was found for NC(=O)c1nc(Nc2ccc3ccccc3c2)sc1NC(=O)c1ccc(CCO)cc1 [Example 116, 5-[4-(2-hydroxyethyl)benzamido]-2-(naphthalen-2-ylamino)thiazole-4-carboxamide] in this work.
A pIC50 of 7.95 was found for Cc1ccc(C(=O)Nc2sc(Nc3ccc4cc(CO)ccc4c3)nc2C(N)=O)s1 [Example 151, 2-{[6-(hydroxymethyl)naphthalen-2-yl]amino}-5-(5-methylthiophene-2-carboxamido)thiazole-4-carboxamide] in this work.
A pIC50 of 8.57 was found for NC(=O)c1nc(Nc2ccc3ccccc3c2)sc1NC(=O)c1ccc(CN2CCN(CCO)CC2)cc1 [Example 185, 5-(4-{[4-(2-hydroxyethyl)piperazin-1-yl]methyl}benzamido)-2-(naphthalen-2-ylamino)thiazole-4-carboxamide] in this work.
A pIC50 of 7.83 was found for NC(=O)c1nc(Nc2ccc3ccccc3c2)sc1NC(=O)c1ccc(Cn2cnc([N+](=O)[O-])n2)cc1 [Example 243, 2-(naphthalen-2-ylamino)-5-{4-[(3-nitro-1H-1,2,4-triazol-1-yl)methyl]benzamido}thiazole-4-carbox-amide] in this work.
A pIC50 of 7.61 was found for CC(=O)Nc1ccc(C(=O)Nc2sc(Nc3cccc4ccccc34)nc2C(N)=O)cc1 [Example 1, 5-(4-acetamidobenzamido)-2-(naphthalen-1-ylamino)thiazole-4-carboxamide] in this work.
A pIC50 of 8.32 was found for NC(=O)c1nc(Nc2cccc3ncccc23)sc1NC(=O)c1ccc(Cn2ccnc2)cc1 [Example 254, 5-{4-[(1H-imidazol-1-yl)methyl]benzamido}-2-(quinolin-5-ylamino)thiazole-4-carboxamide] in this work.
A pIC50 of 8.14 was found for CC(C)=CC(=O)Nc1sc(Nc2ccc3ccc(F)cc3c2)nc1C(N)=O [Example 128, 2-[(7-fluoronaphthalen-2-yl)amino]-5-(3-methyl-but-2-enamido)thiazole-4-carboxamide] in this work.
A pIC50 of 7.29 was found for COc1cc(Nc2nc(C(N)=O)c(NC(=O)c3ccsc3)s2)cc2ccccc12 [Example 74, 2-[(4-methoxynaphthalen-2-yl)amino]-5-(thio-phene-3-carboxamido)thiazole-4-carboxamide] in this work.
A pIC50 of 7.97 was found for CC(O)CNc1ccc(C(=O)Nc2sc(Nc3ccc4ccccc4c3)nc2C(N)=O)cc1 (stereo not drawn) [Example 30, 5-{4-[(2-hydroxypropyl)amino]benzamido}-2-(naphthalen-2-ylamino)thiazole-4-carboxamide] in this work.
A pIC50 of 7.82 was found for COc1ccc2cc(Nc3nc(C(N)=O)c(NC(=O)C=C(C)C)s3)ccc2c1 [Example 137, 2-[(6-methoxynaphthalen-2-yl)amino]-5-(3-meth-ylbut-2-enamido)thiazole-4-carboxamide] in this work.
A pIC50 of 7.77 was found for NC(=O)c1nc(Nc2ccc3ccc(F)cc3c2)sc1NC(=O)c1ccsc1 [Example 80, 2-[(7-fluoronaphthalen-2-yl)amino]-5-(thiophene-3-carboxamido)thiazole-4-carboxamide] in this work.
A pIC50 of 7.97 was found for NC(=O)c1nc(Nc2ccc3ccccc3c2)sc1NC(=O)C#CCCCn1cncn1 [Example 233, 5-[6-(1H-1,2,4-triazol-1-yl)hex-2-ynamido]-2-(naphthalen-2-ylamino)thiazole-4-carboxamide] in this work.
A pIC50 of 7.71 was found for NC(=O)c1nc(Nc2ccc3ccc(F)cc3c2)sc1NC(=O)CCCCCN1CCOCC1 [Example 130, 2-[(7-fluoronaphthalen-2-yl)amino]-5-(6-morpho-linohexanamido)thiazole-4-carboxamide] in this work.
A pIC50 of 7.69 was found for NC(=O)c1nc(Nc2ccc3ccccc3c2)sc1NC(=O)CCCCCN1CCOCC1 [Example 92, 5-(6-morpholinohexanamido)-2-(naphthalen-2-ylamino)thiazole-4-carboxamide] in this work.
A pIC50 of 8.12 was found for NC(=O)c1nc(Nc2ccc3ccccc3c2)sc1NC(=O)c1ccc[nH]1 [Example 33, 2-(naphthalen-2-ylamino)-5-(1H-pyrrole-2-carbox-amido)thiazole-4-carboxamide] in this work.
A pIC50 of 7.73 was found for Cc1noc(Cc2ccc(C(=O)Nc3sc(Nc4ccc5ccccc5c4)nc3C(N)=O)cc2)n1 [Example 256, 5-{4-[(3-methyl-1,2,4-oxadiazol-5-yl)methyl]benzamido}-2-(naphthalen-2-ylamino)thiazole-4-carboxamide] in this work.
A pIC50 of 8.09 was found for CN1CCN(Cc2cc(C(=O)Nc3sc(Nc4cccc5ncccc45)nc3C(N)=O)cs2)CC1 [Example 56, 5-{5-[(4-methylpiperazin-1-yl)methyl]thiophene-3-carboxamido}-2-(quinolin-5-ylamino)thiazole-4-carboxamide] in this work.
A pIC50 of 8.35 was found for NC(=O)c1nc(Nc2ccc3ccccc3c2)sc1NC(=O)C#CCO [Example 218, 5-(4-hydroxybut-2-ynamido)-2-(naphthalen-2-yl-amino)thiazole-4-carboxamide] in this work.
A pIC50 of 7.83 was found for COc1ccc2cc(Nc3nc(C(N)=O)c(NC(=O)c4ccc(NCCO)cc4)s3)ccc2c1 [Example 113, 5-{4-[(2-hydroxyethyl)amino]benzamido}-2-[(6-methoxynaphthalen-2-yl)amino]thiazole-4-carbox-amide] in this work.
A pIC50 of 8.01 was found for NC(=O)c1nc(Nc2ccc3ccccc3c2)sc1NC(=O)C#CCCCn1ccnc1 [Example 234, 5-[6-(1H-imidazol-1-yl)hex-2-ynamido]-2-(naph-thalen-2-ylamino)thiazole-4-carboxamide] in this work.
A pIC50 of 7.77 was found for C[C@@H](O)CNc1ccc(C(=O)Nc2sc(Nc3ccc4ccccc4c3)nc2C(N)=O)cc1 [Example 147, (R)-5-{4-[(2-hydroxypropyl)amino]benzamido}-2-(naphthalen-2-ylamino)thiazole-4-carboxamide] in this work.
A pIC50 of 8.28 was found for NC(=O)c1nc(Nc2ccc3ccccc3c2)sc1NC(=O)c1ccc(Cn2cc(CO)nn2)cc1 [Example 260, 5-{4-[(4-(hydroxymethyl)-1H-1,2,3-triazol-1-yl)methyl]benzamido}-2-(naphthalen-2-ylamino) thiazole-4-carboxamide] in this work.
A pIC50 of 8.14 was found for NC(=O)c1nc(Nc2ccc3ccccc3c2)sc1NC(=O)c1ccc(N2CCN(CCO)CC2)cc1 [Example 187, 5-{4-[4-(2-hydroxyethyl)piperazin-1-yl]benzamido}-2-(naphthalen-2-ylamino)thiazole-4-carbox-amide] in this work.
A pIC50 of 8.00 was found for NC(=O)c1nc(Nc2ccc3cc(F)ccc3c2)sc1NC(=O)c1ccc(Cn2ccnc2)cc1 [Example 249, 5-{4-[(1H-imidazol-1-yl)methyl]benzamido}-2-[(6-fluoronaphthalen-2-yl)amino]thiazole-4-carbox-amide] in this work.
A pIC50 of 8.64 was found for Cc1nccn1Cc1ccc(C(=O)Nc2sc(Nc3ccc4ccccc4c3)nc2C(N)=O)cc1 [Example 237, 5-{4-[(2-methyl-1H-imidazol-1-yl)methyl]benz-amido}-2-(naphthalen-2-ylamino)thiazole-4-carbox-amide] in this work.
